Patent publication US7648972B2, “2-methylene-1α-hydroxy-19,21-dinorvitamin D3 analogs and uses thereof” (Wisconsin Alumni Research Foundation, priority 2006, dated 2010)
Entries after “also recorded” stand apart in the source; their conditions may differ.

Key:
[1] = target: T1, full-length recombinant rat vitamin D receptor (Rattus norvegicus, UniProt P13053); assay: Vitamin D receptor binding (competition with [3H]-1,25-(OH)2-D3)
T1 construct: Full-length recombinant rat receptor was expressed in E. coli BL21 (DE3) Codon Plus RIL cells; histidine tag (C); made in house; host or cells: E. coli BL21 (DE3) Codon Plus RIL
T1 sequence (P13053 1-423): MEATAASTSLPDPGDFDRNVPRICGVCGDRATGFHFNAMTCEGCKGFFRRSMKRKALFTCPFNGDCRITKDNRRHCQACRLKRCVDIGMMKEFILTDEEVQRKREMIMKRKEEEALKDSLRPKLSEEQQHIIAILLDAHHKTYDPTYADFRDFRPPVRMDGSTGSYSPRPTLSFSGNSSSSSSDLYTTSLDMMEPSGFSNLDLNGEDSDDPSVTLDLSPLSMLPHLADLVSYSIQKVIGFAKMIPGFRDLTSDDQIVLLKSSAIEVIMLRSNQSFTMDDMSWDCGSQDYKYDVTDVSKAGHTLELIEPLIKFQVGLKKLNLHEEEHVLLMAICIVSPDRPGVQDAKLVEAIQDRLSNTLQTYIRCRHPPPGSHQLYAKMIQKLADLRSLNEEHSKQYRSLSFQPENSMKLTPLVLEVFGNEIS
Experimental: Full-length recombinant rat receptor was expressed in E. coli BL21 (DE3) Codon Plus RIL cells and purified to homogeneity using two different column chromatography systems. The first system was a nickel affinity resin that utilizes the C-terminal histidine tag on this protein. The protein that was eluted from this resin was further purified using ion exchange chromatography (S-Sepharose Fast Flow). Aliquots of the purified protein were quick frozen in liquid nitrogen and stored at −80° C. until use. For use in binding assays, the protein was diluted in TEDK50 (50 mM Tris, 1.5 mM EDTA, pH7.4, 5 mM DTT, 150 mM KCl) with 0.1% Chaps detergent. The receptor protein and ligand concentration was optimized such that no more than 20% of the added radiolabeled ligand was bound to the receptor.
Radiolabeled ligand (^3H-1,25(OH)2D3, ˜159 Ci/mmole) was added in ethanol at a final concentration of 1 nM.
Radiolabeled and unlabeled ligands were added to 100 mcl of the diluted protein at a final ethanol concentration of <10%, mixed and incubated overnight on ice to reach binding equilibrium. The following day, 100 mcl of hydroxylapatite slurry (50%) was added to each tube and mixed at 10-minute intervals for 30 minutes. […] Total binding was determined from the tubes containing only radiolabeled ligand.

[2] = system: HL-60 cells; assay: HL-60 differentiation (nitro blue tetrazolium reduction); assay type: cell-based, human; settings: FIG. 4
Experimental: The study drugs were dissolved in ethanol and the concentrations determined using UV spectrophotometry. Serial dilutions were prepared so that a range of drug concentrations could be tested without changing the final concentration of ethanol (<0.2%) present in the cell cultures.
Human promyelocytic leukemia (HL60) cells were grown in RPMI-1640 medium containing 10% fetal bovine serum. The cells were incubated at 37° C. in the presence of 5% CO2.
HL60 cells were plated at 1.2×10^5 cells/ml. Eighteen hours after plating, cells in duplicate were treated with drug. Four days later, the cells were harvested and a nitro blue tetrazolium reduction assay was performed (Collins et al., 1979; J. Exp. Med. 149:969-974). The percentage of differentiated cells was determined by counting a total of 200 cells and recording the number that contained intracellular black-blue formazan deposits. Verification of differentiation to monocytic cells was determined by measuring phagocytic activity (data not shown).

[3] = system: 24-hydyroxylase (24Ohase) gene promoter luciferase reporter in ROS 17/2.8 (bone) cells; assay: In vitro transcription assay (24-hydroxylase promoter luciferase reporter); assay type: cell-based; settings: Ros17/2.8 (bone) cells
Experimental: Transcription activity was measured in ROS 17/2.8 (bone) cells that were stably transfected with a 24-hydyroxylase (24Ohase) gene promoter upstream of a luciferase reporter gene (Arbour et al., 1998). Cells were given a range of doses. Sixteen hours after dosing the cells were harvested and luciferase activities were measured using a luminometer. (RLU=relative luciferase units)

[4] = system: Male, weanling Sprague-Dawley rats; assay: Intestinal calcium transport (everted gut sac method); assay type: in vivo, rat; settings: four consecutive ip doses, FIG. 3
Description: (§1) Male, weanling Sprague-Dawley rats were placed on Diet 11 (Suda et al., Purified Rodent Diet-Diet 11, containing 0.47% and 0.3% phosphorus and fat soluble vitamins A, D, E and K are provided ad libitum)(0.47% Ca) diet+AEK for one week followed by Diet 11 (0.02% Ca)+AEK for 3 weeks. The rats were then switched to a diet containing 0.47% Ca for one week followed by two weeks on a diet containing 0.02% Ca. Dose administration began during the last week on 0.02% calcium diet. Four consecutive ip doses were given approximately 24 hours apart. Twenty-four hours after the last dose, blood was collected from the severed neck and the concentration of serum calcium determined as a measure of bone calcium mobilization. The first 10 cm of the intestine was also collected for intestinal calcium transport analysis using the everted gut sac method. The everted gut sac assay was carried out as previously described by Martin and Deluca, Am. J. Physiol. 216, 1351 (1969); (DeLuca et al., U.S. Pat. No. 4,188,345), which are incorporated by reference as if fully set forth herein.
The negative control material is prepared by volumetrically measuring ethanol (<5%) and propylene glycol, mixing, and then placing in storage at 2 to 8° C.
The solution is mixed and then stored at 2 to 8° C. […]

[5] = system: Male, weanling Sprague-Dawley rats; assay: Bone calcium mobilization (serum calcium); assay type: in vivo, rat; settings: four consecutive ip doses, FIG. 2
Description: as §1, with “herein. […]” for “herein.”
Twenty-four hours after the final dose, approximately 1 ml of blood is collected from the tail artery of each experimental animal. […] The level of calcium is determined by diluting the serum into 0.1% lanthum chloride and measuring the absorbance on an atomic absorption spectrophotometer (Perkin Elmer Model 3110, Shelton, Conn.).

binding to the recombinant vitamin D receptor, times less active when compared to 1α,25-dihydroxyvitamin D3 ([1]; competition with [3H]-1,25-(OH)2-D3, relative to 1α,25-dihydroxyvitamin D3, FIG. 1): 10 times
binding to vitamin D receptors (in words) ([1]; summary statement): high binding to vitamin D receptors
Structure (SMILES): C=C1[C@H](O)CC(=C/C=C2\CCC[C@]3(C)[C@@H](CCCCC(C)C)CC[C@@H]23)C[C@H]1O [SY-44, 2-methylene-1α-hydroxy-19,21-dinorvitamin D3]
activity in inducing differentiation of HL-60 cells compared with 1α,25-dihydroxyvitamin D3 [2]: slightly less active; also recorded: capability to induce differentiation of HL-60 cells
stimulating transcription of a reporter gene, times less active than 1α,25-dihydroxyvitamin D3 ([3]; stably transfected reporter, FIG. 5): 10 times
stimulation of transcription of reporter gene (in words) ([3]; summary statement): capability to stimulate transcription of reporter gene
intestinal calcium transport activity compared with 1α,25-dihydroxyvitamin D3 [4]: higher intestinal calcium transport activity; also recorded: high intestinal calcium transport activity
bone calcium mobilization activity compared with 1α,25-dihydroxyvitamin D3 [5]: less bone calcium mobilization activity; also recorded: low ability to mobilize calcium from bone
